# According to patent US12171852B1, “Composition and methods for regulating melanogenesis” (Sytheon Ltd, priority 2023, dated 2024):
# What was measured:
# [1] = tested on: microphthalmia-associated transcription factor (MITF) gene expression; assay: MITF gene expression, transcriptome analysis of treated EpiDermFT tissues; format: cell-based; conditions: EpiDermFT tissue, 3 μl of 100 μg/ml solution, 24 hours
# Protocol: EpiDermFT tissues were obtained from MatTek and equilibrated overnight in the cell culture incubator. […] All stock solutions were prepared at 20 mg/ml in DMSO and further dilutions were made in sterile distilled water. The proposed dosage used was based on cytotoxicity data. Water was used as the negative control. The treated tissue samples were incubated for a period of 24 hours following which RNA was extracted and prepared for transcriptome analysis for assessing the impact, if any, on the gene expression of microphthalmia-associated transcription factor (MITF). Sequencing data were generated by Azenta Life Sciences (HiSeq 2×150 bp). Analyses were performed using raw FastQ files provided by Azenta.
# [2] = molecular target: NADPH Oxidase 4 (NOX-4) (Homo sapiens (Human), UniProt Q9NPH5); assay: NADPH oxidase (NOX-4) inhibitory activity, NOX4 ELISA kit; format: biochemical
# Protocol: A study was conducted on the direct impact of Zn di-(di-n-butyryl lysinate) (ZDBL), Ca di-(di-n-butyryl lysinate), and Na butyrate on NADPH Oxidase 4 (NOX-4) enzyme. In this study, 0.01 gram of sample was dissolved in 1 ml propanediol to make solution. For the analysis, a 1 to 2 serial dilution of the stock solution of the sample using buffer was made to determine the IC50 values. The analysis was done following NOX4 ELISA kit (My BioSource, Catalog #MBS2505108) protocol.
# [3] = tested on: MITF gene expression; assay: MITF gene expression validated by real-time quantitative PCR in EpiDermFT tissues; format: cell-based; conditions: versus water control
# Protocol: As validation of the findings above a second analysis of the tissue samples was performed this time using cDNA prepared using High-Capacity RNA-to-cDNA™ Kit (Thermo Fisher Scientific). Expression of the applicable genes was measured by real-time quantitative PCR with the BioRad iCycler iQ Detection System using PCR primers from Realtimeprimers (Elkins Park, PA) and AzuraView GreenFast qPCR Blue Mix LR (Azura Genomics, Raynham, MA). Efficiency ΔΔCt method was used for quantification of results, after the normalization of gene expression to GAPD (a housekeeping gene).
# [4] = tested on: mushroom tyrosinase; assay: In vitro tyrosinase inhibition assay (L-DOPA conversion); format: biochemical; conditions: for Tyrosinase enzyme activity (% of Control): 80 min, L-DOPA 5 mM; for Inhibition of tyrosinase activity (in words): particularly at the higher concentrations
# Protocol: Louis, MO, catalog #K3125) was employed as the positive control/reference substance. […] [Biosci Biotechnol Biochem, 67:1587-1589, 2003]. […] The final concentration used in the assay was 16 U/well (80 U/ml). Tyrosinase substrate L-DOPA (Acros Organics, Fair Lawn, NJ) was used at 5 mM. Reactions were conducted in a 96 well format and were initiated by adding the enzyme to the reaction mix and allowed to react for 80 min. […] The increase of the melanin output was calculated using the formula: ΔM=[A450 nm(t=80 min.)+Tyrosinase]−[A450 nm(t=80 min.)−Tyrosinase] where ΔM is increase of melanin, A is absorbance for a given experimental condition, t is a time point and 450 nm is the wavelength used for the quantification of melanin and “-Tyrosinase” is the background reading of identical experimental conditions without the enzyme.
# [5] = molecular target: Thioredoxin reductase 1 (Homo sapiens (Human), UniProt Q16881); assay: Thioredoxin reductase 1 (TrxR1) inhibitory activity; format: biochemical; conditions: average of two readings; 1 hour incubation at room temperature
# Protocol: Thioredoxin is known to influence melanogenesis substrates [Y Lu et al., Modulating skin colour: role of thioredoxin and glutathione systems in regulating melanogenesis, Bioscience Reports, 2021; 41 BSR20210427]. […] Test materials were prepared by dissolving 0.01 gm of each test material in 1 ml ethanol to make stock solutions. […] The plate was read at 412 nm for 30 minutes to determine the inhibition.
# [6] = tested on: B16-F1 melanocytes; assay: Melanin synthesis in melanocytes, melanin colorimetric competitive ELISA; format: cell-based; conditions: for % Melanin Inhibition: 200 μg/ml, water control = 100; for Melanin-inhibitory activity (in words): colorimetric quantification, ZDBL at 200 μg/ml
# Sequence of Thioredoxin reductase 1 (Q16881 151-649): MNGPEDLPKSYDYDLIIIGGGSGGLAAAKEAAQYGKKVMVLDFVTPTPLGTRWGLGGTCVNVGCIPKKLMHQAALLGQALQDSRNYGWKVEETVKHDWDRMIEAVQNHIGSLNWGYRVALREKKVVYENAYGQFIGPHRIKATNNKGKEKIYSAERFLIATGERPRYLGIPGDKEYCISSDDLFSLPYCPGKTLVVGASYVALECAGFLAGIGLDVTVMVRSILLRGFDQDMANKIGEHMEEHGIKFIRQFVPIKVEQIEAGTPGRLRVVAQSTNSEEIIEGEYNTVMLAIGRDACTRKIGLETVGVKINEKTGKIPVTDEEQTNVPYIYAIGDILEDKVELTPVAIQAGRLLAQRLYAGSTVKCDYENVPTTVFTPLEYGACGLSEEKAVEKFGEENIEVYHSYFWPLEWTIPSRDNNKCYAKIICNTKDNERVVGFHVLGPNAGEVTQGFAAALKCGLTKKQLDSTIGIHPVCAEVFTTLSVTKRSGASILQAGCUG
structure (smiles),measurement,setting,value
"CCCC(=O)NCCCCC(NC(=O)CCC)C(=O)[O-].CCCC(=O)NCCCCC(NC(=O)CCC)C(=O)[O-].[Ca+2] (centres unmarked) [CDBL, calcium di-(di-n-butyryl lysinate)]",Fold change/mean FPKM = 2.2 (MITF gene expression),[1],0.41
same,MITF gene expression effect (in words),[1]; listed as Ca di-(di-n-butyryl lysinate) (CDBL),No effect
same,MITF gene expression effect (in words),[1]; listed as Ca di-n-butyryl lysinate,not significantly altered
same,"IC50 value, NADPH Oxidase (NOX-4)",[2],240 µg/mL
same,Comments (MITF gene expression by PCR),[3],No Effect
same,Tyrosinase enzyme activity (% of Control),[4]; 10 μg/ml,85 (p = 0.10) % of Control
same,Tyrosinase enzyme activity (% of Control),[4]; 50 μg/ml,89 (p = 0.13) % of Control
same,Tyrosinase enzyme activity (% of Control),[4]; 200 μg/ml,99 (p = 0.86) % of Control
same,Inhibition of tyrosinase activity (in words),[4],ineffective
same,"IC50 value, Thioredoxin Reductase 1",[5],4.53 µg/mL
same,% Melanin Inhibition,[6]; three days,0%
same,Melanin-inhibitory activity (in words),[6],no significant effect
"NCCCC[C@H](N)C(=O)[O-].NCCCC[C@H](N)C(=O)[O-].[Ca+2] [Ca lysinate (CLY), Ca lysinate]",Fold change/mean FPKM = 2.2 (MITF gene expression),[1],−0.21
same,MITF gene expression effect (in words),[1],No effect
same,MITF gene expression effect (in words),[1]; listed as Ca lysinate,not significantly altered
same,Comments (MITF gene expression by PCR),[3],No Effect
CCCCCCc1ccc(O)cc1O [Hexylresorcinol],"Melanin inhibition, positive control","[6]; 5 μg/ml, three days",*Hexylresorcinol (5 μg/ml) was used as a positive control: Melanin inhibition was found fo be 17% of control (p = 0.007) confirming the validation of the protocol.
"O=c1cc(CO)occ1O [Kojic acid, kojic acid]","Tyrosinase enzyme activity (% of control), positive control",[4]; 200 μM,*Kojic acid (200 μM) was used as a positive control: Tyrosinase enzyme activity was found to be 39% of control (p = 0.00) confirming the validation of the protocol.
"NCCCC[C@H](N)C(=O)O [Lysine (LYS), Lysine]",Fold change/mean FPKM = 2.2 (MITF gene expression),[1],0.38
same,MITF gene expression effect (in words),[1],No effect
same,MITF gene expression effect (in words),[1]; listed as lysine,not significantly altered
CCCC(=O)[O-].[Na+] [Na butyrate],"IC50 value, NADPH Oxidase (NOX-4)",[2],170 µg/mL
"NCCCC[C@H](N)C(=O)[O-].NCCCC[C@H](N)C(=O)[O-].[Zn+2] [Zn lysinate (ZLY), Zn lysinate]",Fold change/mean FPKM = 2.2 (MITF gene expression),[1],0.17
same,MITF gene expression effect (in words),[1],No effect
same,MITF gene expression effect (in words),[1]; listed as Zn lysinate,not significantly altered
same,Comments (MITF gene expression by PCR),[3],No Effect
same,Tyrosinase enzyme activity (% of Control),[4]; 10 μg/ml,80 (p = 0.02) % of Control
same,Tyrosinase enzyme activity (% of Control),[4]; 50 μg/ml,90 (p = 0.95) % of Control
same,Tyrosinase enzyme activity (% of Control),[4]; 200 μg/ml,90 (p = 0.23) % of Control
same,Inhibition of tyrosinase activity (in words),[4],ineffective
same,% Melanin Inhibition,[6]; three days,0%
same,Melanin-inhibitory activity (in words),[6],no significant effect
